Assay results: PubChem BioAssay (NCI)
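Tested at 5 concentrations; 48 h exposure; 96-well plates; endpoints linearly interpolated, else capped at highest concentration. TGI denotes the concentration required for complete inhibition of growth.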

How the values were obtained:
Test in all cases: NCI anticancer screen, dose series, 48 h
[1] = test system: TK-10 renal
[2] = test system: M14 melanoma
[3] = test system: SF-268 CNS
[4] = test system: MALME-3M melanoma
[5] = test system: SN12C renal
[6] = test system: HOP-62 NSCLC
[7] = test system: CAKI-1 renal
[8] = test system: MDA-N
[9] = test system: SF-539 CNS
[10] = test system: HS 578T breast
[11] = test system: NCI-H460 lung
[12] = test system: MOLT-4 leukemia
[13] = test system: HL-60(TB) leukemia
[14] = test system: COLO 205 colon
[15] = test system: SK-MEL-28 melanoma
[16] = test system: SNB-75 CNS
[17] = test system: SK-OV-3 ovarian
[18] = test system: NCI-H226 lung
[19] = test system: HCT-15 colon
[20] = test system: SNB-19 CNS
[21] = test system: BT-549 breast
[22] = test system: UACC-62 melanoma
[23] = test system: U251 CNS
[24] = test system: A549 NSCLC
[25] = test system: SK-MEL-2 melanoma
[26] = test system: OVCAR-8 ovarian
[27] = test system: DU-145 prostate
[28] = test system: NCI-H23 lung
[29] = test system: HCT-116 colon
[30] = test system: SF-295 CNS
[31] = test system: IGROV1 ovarian
[32] = test system: K-562 leukemia
[33] = test system: UO-31 renal
[34] = test system: SW-620 colon
[35] = test system: PC-3 prostate
[36] = test system: OVCAR-4 ovarian
[37] = test system: HCC-2998 colon
[38] = test system: SR leukemia
[39] = test system: T-47D breast
[40] = test system: A498 renal
[41] = test system: OVCAR-3 ovarian
[42] = test system: EKVX NSCLC
[43] = test system: 786-0 renal
[44] = test system: RXF 393 renal
[45] = test system: HT29 colon
[46] = test system: NCI/ADR-RES ovarian
[47] = test system: CCRF-CEM leukemia
[48] = test system: MDA-MB-231 breast
[49] = test system: MCF7 breast
[50] = test system: ACHN renal
[51] = test system: OVCAR-5 ovarian
[52] = test system: NCI-H522 lung
[53] = test system: KM12 colon
[54] = test system: LOX IMVI melanoma
[55] = test system: RPMI-8226 leukemia
[56] = test system: SK-MEL-5 melanoma
[57] = test system: UACC-257 melanoma
[58] = test system: MDA-MB-435
[59] = test system: HOP-92 NSCLC

CN1c2ccccc2SC2C(c3ccccc3)=NOC21 (stereo not drawn)
TGI [1]: 80 µM | TGI [2]: > 100 µM | TGI [3]: > 100 µM | TGI [4]: 86.5 µM | TGI [5]: > 100 µM | TGI [6]: > 100 µM | TGI [7]: > 100 µM | TGI [8]: 52.8 µM | TGI [9]: > 100 µM | TGI [10]: > 100 µM | TGI [11]: > 100 µM | TGI [12]: > 100 µM | TGI [13]: > 100 µM | TGI [14]: > 100 µM | TGI [15]: > 100 µM | TGI [16]: 56.6 µM | TGI [17]: > 100 µM | TGI [18]: > 100 µM | TGI [19]: 43.7 µM | TGI [20]: > 100 µM | TGI [21]: 68.4 µM | TGI [22]: > 100 µM | TGI [23]: > 100 µM | TGI [24]: > 100 µM | TGI [25]: 73.9 µM | TGI [26]: > 100 µM | TGI [27]: > 100 µM | TGI [28]: 71.7 µM | TGI [29]: 60.7 µM | TGI [30]: > 100 µM | TGI [31]: > 100 µM | TGI [32]: > 100 µM | TGI [33]: > 100 µM | TGI [34]: > 100 µM | TGI [35]: 71 µM | TGI [36]: > 100 µM | TGI [37]: > 100 µM | TGI [38]: > 100 µM | TGI [39]: 94.3 µM | TGI [40]: > 100 µM | TGI [41]: > 100 µM | TGI [42]: > 100 µM | TGI [43]: > 100 µM | TGI [44]: > 100 µM | TGI [45]: > 100 µM | TGI [46]: 87.3 µM | TGI [47]: > 100 µM | TGI [48]: > 100 µM | TGI [49]: > 100 µM | TGI [50]: > 100 µM | TGI [51]: > 100 µM | TGI [52]: 64.1 µM | TGI [53]: > 100 µM

Nc1nc(Nc2ccccc2)sc1C(=O)c1ccco1
TGI [1]: 35.9 µM | TGI [2]: 36.9 µM | TGI [3]: > 100 µM | TGI [4]: 57.1 µM | TGI [54]: 42.8 µM | TGI [5]: 39.5 µM | TGI [6]: 67.8 µM | TGI [8]: 33.9 µM | TGI [9]: 33.3 µM | TGI [10]: 40.8 µM | TGI [11]: 28 µM | TGI [12]: 35.7 µM | TGI [13]: 36.1 µM | TGI [14]: 27.8 µM | TGI [15]: 67.1 µM | TGI [16]: 37.7 µM | TGI [17]: 93.6 µM | TGI [18]: 55.3 µM | TGI [19]: 50.9 µM | TGI [20]: 50.9 µM | TGI [55]: 42.2 µM | TGI [21]: 54.3 µM | TGI [22]: 40.1 µM | TGI [23]: > 100 µM | TGI [24]: 43.2 µM | TGI [25]: 36.7 µM | TGI [27]: 40.8 µM | TGI [56]: 23.2 µM | TGI [28]: 35.9 µM | TGI [29]: 36.7 µM | TGI [57]: 68.9 µM | TGI [31]: 60.7 µM | TGI [58]: 31.5 µM | TGI [32]: 57.7 µM | TGI [33]: 30.2 µM | TGI [34]: 67.4 µM | TGI [35]: > 100 µM | TGI [36]: 50.5 µM | TGI [38]: 25.2 µM | TGI [39]: 41.4 µM | TGI [40]: 39.6 µM | TGI [41]: 31.5 µM | TGI [42]: 38.7 µM | TGI [43]: 31.7 µM | TGI [59]: 82.6 µM | TGI [44]: 30.8 µM | TGI [45]: 41.9 µM | TGI [46]: 65.5 µM | TGI [47]: 17.1 µM | TGI [48]: 97.7 µM | TGI [49]: 26.3 µM | TGI [50]: 62.2 µM | TGI [51]: 71.5 µM | TGI [53]: 23.5 µM

O=[N+]([O-])/C(Cl)=C(\NCCN/C(C(Cl)=C(Cl)Cl)=C(/Cl)[N+](=O)[O-])C(Cl)=C(Cl)Cl
TGI [1]: > 100 µM | TGI [2]: > 100 µM | TGI [3]: > 100 µM | TGI [4]: > 100 µM | TGI [54]: 37.8 µM | TGI [5]: > 100 µM | TGI [6]: > 100 µM | TGI [7]: > 100 µM | TGI [8]: > 100 µM | TGI [9]: > 100 µM | TGI [11]: > 100 µM | TGI [12]: 80.7 µM | TGI [13]: 87.5 µM | TGI [14]: > 100 µM | TGI [15]: > 100 µM | TGI [16]: > 100 µM | TGI [17]: > 100 µM | TGI [18]: > 100 µM | TGI [19]: > 100 µM | TGI [20]: > 100 µM | TGI [55]: 65.8 µM | TGI [21]: > 100 µM | TGI [22]: > 100 µM | TGI [23]: > 100 µM | TGI [24]: > 100 µM | TGI [26]: > 100 µM | TGI [27]: > 100 µM | TGI [28]: > 100 µM | TGI [29]: > 100 µM | TGI [30]: > 100 µM | TGI [31]: > 100 µM | TGI [58]: > 100 µM | TGI [32]: > 100 µM | TGI [33]: > 100 µM | TGI [34]: > 100 µM | TGI [35]: > 100 µM | TGI [37]: > 100 µM | TGI [38]: 50.4 µM | TGI [39]: > 100 µM | TGI [40]: > 100 µM | TGI [41]: > 100 µM | TGI [42]: > 100 µM | TGI [43]: > 100 µM | TGI [59]: 53.9 µM | TGI [46]: > 100 µM | TGI [47]: > 100 µM | TGI [48]: > 100 µM | TGI [49]: > 100 µM | TGI [50]: > 100 µM | TGI [51]: > 100 µM | TGI [53]: > 100 µM
